Data taken from patent publication EP4707280A1, “1,4-CINEOLE DERIVATIVE AND INTERMEDIATE THEREOF, HERBICIDE CONTAINING SAID DERIVATIVE AS ACTIVE INGREDIENT, METHOD FOR USING HERBICIDE, AND METHOD FOR PREPARING AGROCHEMICAL COMPOSITION” (HOKKO CHEMICAL INDUSTRY CO., LTD., priority 2023, dated 2024).

What was measured:
Assay type in all cases: in vivo
[1] = tested on: Echinochloa crus-galli var. formosensis; test: Test Example 1: herbicidal effect test by soil application in paddy rice; conditions: Echinochloa crus-galli, soil, 336 h; 120 g active ingredient per 10 ares; applied immediately after sowing, flooded pots; 14 days after application; read-out: weed inhibition rate
In short: (§1)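 Paddy soil in Wagner pots (1/10,000 acre), fertilized and puddled; 30 seeds per species sown at 0–1 cm, flooded to ~3 cm, greenhouse. Water-diluted emulsifiable concentrate dropped onto flooded pots right after sowing at 120 g active ingredient per 10 ares.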

Scirpus juncoides [2] = test: as above; conditions: Schoenoplectiella juncoides, soil, 336 h; 120 g active ingredient per 10 ares; applied immediately after sowing, flooded pots; 14 days after application; read-out: weed inhibition rate
In short: as §1

Monochoria vaginalis [3] = test: as above; conditions: Pontederia vaginalis, soil, 336 h; 120 g active ingredient per 10 ares; applied immediately after sowing, flooded pots; 14 days after application; read-out: weed inhibition rate
In short: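 Pre-emergence test in puddled, flooded paddy soil (about 3 cm water), 30 seeds per weed sown at 0–1 cm depth in a glass greenhouse. Emulsifiable concentrate diluted in water and dropped onto the pots straight after sowing at 120 g a.i. per 10 ares. Weed inhibition (%) scored at 14 days, in duplicate.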

[4] = tested on: Echinochloa crus-galli var. formosensis; test: Test Example 2: herbicidal effect test by application during growth period of paddy rice; conditions: Echinochloa crus-galli; 120 g per 10 ares; applied seven days after sowing, flooded pots; 14 days after application; read-out: weed inhibition rate
In short: (§2)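 Paddy soil in flooded pots (water depth about 3 cm) was sown with weed seeds and kept in a glass greenhouse. Seven days after sowing, a diluted emulsifiable concentrate was applied by dropper at 120 g active ingredient per 10 ares. Weed inhibition was evaluated 14 days after application, in duplicate.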

Scirpus juncoides [5] = test: as above; conditions: Schoenoplectiella juncoides; 120 g per 10 ares; applied seven days after sowing, flooded pots; 14 days after application; read-out: weed inhibition rate
In short: as §2

Digitaria ciliaris [6] = test: Test Example 4: herbicidal effect test by stem and leaf treatment in upland field; conditions: Digitaria ciliaris; 120 g per 10 ares; sprayed seven days after sowing, upland soil; 14 days after application; read-out: weed inhibition rate
Echinochloa crus-galli = test: Test Example 8: herbicidal effect test by stem and leaf treatment in upland field (low dose); conditions: Echinochloa crus-galli; 7.5 g per 10 ares; sprayed seven days after sowing, upland soil; 14 days after application; read-out: weed inhibition rate
Monochoria vaginalis [7] = test: Test Example 2: herbicidal effect test by application during growth period of paddy rice; conditions: Pontederia vaginalis; 120 g per 10 ares; applied seven days after sowing, flooded pots; 14 days after application; read-out: weed inhibition rate
In short: as §2

Digitaria ciliaris [8] = test: Test Example 8: herbicidal effect test by stem and leaf treatment in upland field (low dose); conditions: Digitaria ciliaris; 7.5 g per 10 ares; sprayed seven days after sowing, upland soil; 14 days after application; read-out: weed inhibition rate

CCOC(C)O[C@H]1C[C@]2(C)O[C@@]1(C(C)C)C[C@H]2OCc1ccccc1C (stereo partly drawn) [1-208, (1R,2S,4S,5R)-2-(1-ethoxyethoxy)-1-isopropyl-4-methyl-5-((2-methylbenzyl)oxy)-7-oxabicyclo[2.2.1]heptane]
≥ 80%: pest or weed control at 1200 g/ha [1] | pest or weed control at 1200 g/ha (Scirpus juncoides [2]) | pest or weed control at 1200 g/ha (Monochoria vaginalis [3]) | inhibition at 1200 g/ha [4] | inhibition at 1200 g/ha (Scirpus juncoides [5]) | inhibition at 1200 g/ha (Digitaria ciliaris [6]) | inhibition at 75 g/ha (Echinochloa crus-galli)

COC1(OC)C[C@]2(C)O[C@@]1(C(C)C)C[C@H]2OCc1ccccc1F [1-935, (1R,4S,5R)-5-((2-fluorobenzyl)oxy)-1-isopropyl-2,2-dimethoxy-4-methyl-7-oxabicyclo[2.2.1]heptane]
≥ 80%: pest or weed control at 1200 g/ha [1] | pest or weed control at 1200 g/ha (Scirpus juncoides [2]) | pest or weed control at 1200 g/ha (Monochoria vaginalis [3]) | inhibition at 1200 g/ha [4] | inhibition at 1200 g/ha (Monochoria vaginalis [7]) | inhibition at 1200 g/ha (Scirpus juncoides [5]) | inhibition at 1200 g/ha (Digitaria ciliaris [6])

CC(C)[C@]12C[C@@H](OCc3ccc(F)cc3)[C@](C)(CC1=O)O2 [2-349, (1R,4S,5R)-5-((4-fluorobenzyl)oxy)-1-isopropyl-4-methyl-7-oxabicyclo[2.2.1]heptan-2-one]
≥ 80%: pest or weed control at 1200 g/ha [1] | pest or weed control at 1200 g/ha (Scirpus juncoides [2]) | pest or weed control at 1200 g/ha (Monochoria vaginalis [3]) | inhibition at 1200 g/ha [4] | inhibition at 1200 g/ha (Monochoria vaginalis [7]) | inhibition at 1200 g/ha (Digitaria ciliaris [6]) | inhibition at 75 g/ha (Digitaria ciliaris [8]) | inhibition at 75 g/ha (Echinochloa crus-galli)

CC(C)[C@]12C[C@@H](OCc3ccccc3C#N)[C@](C)(C[C@@H]1Br)O2 [1-703, 2-[[(1S,2R,4R,5S)-5-bromo-1-methyl-4-isopropyl-7-oxabicyclo[2.2.1]heptan-2-yl]oxymethyl]benzonitrile]
≥ 80%: pest or weed control at 1200 g/ha [1] | pest or weed control at 1200 g/ha (Scirpus juncoides [2]) | pest or weed control at 1200 g/ha (Monochoria vaginalis [3]) | inhibition at 1200 g/ha [4] | inhibition at 1200 g/ha (Monochoria vaginalis [7]) | inhibition at 1200 g/ha (Scirpus juncoides [5]) | inhibition at 1200 g/ha (Digitaria ciliaris [6]) | inhibition at 75 g/ha (Digitaria ciliaris [8])

Cc1cccc(CO[C@@H]2C[C@]3(C(C)C)O[C@@]2(C)C[C@@H]3Br)c1 [1-680, (1S,2R,4R,5S)-5-bromo-1-methyl-2-[(3-methylphenyl)methoxy]-4-isopropyl-7-oxabicyclo[2.2.1]heptane]
≥ 80%: pest or weed control at 1200 g/ha [1] | pest or weed control at 1200 g/ha (Scirpus juncoides [2]) | pest or weed control at 1200 g/ha (Monochoria vaginalis [3]) | inhibition at 1200 g/ha [4] | inhibition at 1200 g/ha (Monochoria vaginalis [7]) | inhibition at 1200 g/ha (Scirpus juncoides [5]) | inhibition at 1200 g/ha (Digitaria ciliaris [6]) | inhibition at 75 g/ha (Echinochloa crus-galli)

Cc1ccccc1CO[C@@H]1C[C@]2(C(C)C)O[C@@]1(C)C[C@@H]2Br [1-16, (1S,2R,4R,5S)-5-bromo-1-methyl-2-[(2-methylphenyl)methoxy]-4-isopropyl-7-oxabicyclo[2.2.1]heptane]
≥ 80%: pest or weed control at 1200 g/ha [1] | pest or weed control at 1200 g/ha (Scirpus juncoides [2]) | pest or weed control at 1200 g/ha (Monochoria vaginalis [3]) | inhibition at 1200 g/ha [4] | inhibition at 1200 g/ha (Digitaria ciliaris [6]) | inhibition at 75 g/ha (Digitaria ciliaris [8]) | inhibition at 75 g/ha (Echinochloa crus-galli)

CC(C)[C@]12C[C@@H](OCc3ccccc3F)[C@](C)(C[C@@H]1OS(=O)(=O)C(F)(F)F)O2 [1-525, (1R,2S,4S,5R)-5-((2-fluorobenzyl)oxy)-1-isopropyl-4-methyl-7-oxabicyclo[2.2.1]heptan-2-yl trifluoromethanesulfonate]
≥ 80%: pest or weed control at 1200 g/ha [1] | pest or weed control at 1200 g/ha (Scirpus juncoides [2]) | pest or weed control at 1200 g/ha (Monochoria vaginalis [3]) | inhibition at 1200 g/ha [4] | inhibition at 1200 g/ha (Digitaria ciliaris [6]) | inhibition at 75 g/ha (Digitaria ciliaris [8]) | inhibition at 75 g/ha (Echinochloa crus-galli)

CC(C)[C@]12C[C@@H](OCc3cc(F)ccc3F)[C@](C)(CC1=O)O2 [2-18, (1R,4S,5R)-5-((2,5-difluorobenzyl)oxy)-1-isopropyl-4-methyl-7-oxabicyclo[2.2.1]heptan-2-one]
≥ 80%: pest or weed control at 1200 g/ha [1] | pest or weed control at 1200 g/ha (Scirpus juncoides [2]) | inhibition at 1200 g/ha [4] | inhibition at 1200 g/ha (Monochoria vaginalis [7]) | inhibition at 1200 g/ha (Scirpus juncoides [5]) | inhibition at 1200 g/ha (Digitaria ciliaris [6]) | inhibition at 75 g/ha (Digitaria ciliaris [8]) | inhibition at 75 g/ha (Echinochloa crus-galli)
